One assay has as its system HeLa cells. Kind of assay: Apoptosis by annexin V-FITC staining, flow cytometry. Conditions: for Percent Annexin V Positive Staining: 44 hours post treatment. It is filed as cell-based. On the procedure: P53 was administered to the cells by the use of the replication defective adenoviral vector ACN53 described in Wills, et al., supra. The effect of varying concentrations of rAd-p53 (from […] to 2×10^9 rAd-p53 particles/ml of solution) was investigated in combination with CI-1 in a range of 5–20 μm. The effects of individual and combination treatment was determined in the in DLD1, RKO, HLF and SK-Hep1 cells was investigated in substantial accordance with the teaching of Examples 2 and 3 herein. The percentage of apoptotic cells was determined at 17 hours post treatment (with the exception of U87 cells (24 hours) and HeLa cells (68 hours)) with annexin V positive staining. The results are presented in graphical format in FIG. 3 of the attached drawings. In brief, the results were as follows:
The effect of an inhibitor of μ-calpains, CI-1 (N-acetyl-leu-leu-norleucinal), was investigated for its ability to enhance p53 mediated apoptosis in tumor cell lines having p53+ and p53− status listed in Table1. Each cell line was treated with 5–50 μM CI-1 for 17–26 hours. To detect a G0/G1 block, bromodeoxyuridine (BrdU) incorporation followed by flow cytometric analysis was done 17 hours post-treatment as described in Example 4 herein. […] The results of these experiments are presented in FIGS. 1 and 2 of the attached drawings. In FIG. 1, each point on the graph represents percentage annexin V positive after background percentage (DMF alone) was subtracted.
An aliquot containing approximately 1×10^6 cells of each type was placed in a T-225 flask. The effect of varying concentrations of rAd-p53 (from 1×10^7 to 2×10^9ACN53 particles/ml of solution) was investigated in combination with CI-1 in a range of 5–20 μM. In each instance, the cell line was infected with 1×10^7–1×10^9 particles/ml of cell culture with the ACN53 using the empty cassette virus (ZZCB) as a control. In each instance, the cells were exposed to the virus for a period of one hour. At the end of this time, the virus was washed off the from the cells and fresh media containing an appropriate concentration of CI-1 was added.
CI-1 was obtained from Boehringer-Mannheim Biochemicals (Indianapolis, Ind.). The CI-1 containing media was prepared as follows. CI-1 was diluted in dimethylformamide (DMF) to a concentration of 33.3 μM/μl. The CI-1 solution in DMF was added to achieve a final concentration in the media of 5 or 10 μM final concentration of CI-1. An equivalent volume of DMF alone was added to the control cells. Calpain inhibitor 2, N-acetyl-leu—leu-methioninal (Boehringer Mannheim) was added to cell lines at 5–50 μM final concentration with or without rAd-p53 for 26 hours.
At a time of 17 (or 26 hours) post infection, the percentage of cells undergoing apoptosis was determined by convential apoptotic markers. Apoptosis was monitored visually by observing blebbed nuclei characteristic of apoptosis, by propidium iodide staining (using propidium iodide commercially available from Molecular Probes, Inc.) followed by flow cytometric analysis to look for subgenomic populations of cells, and by labeling cells with annexin V-FITC (commercially available from Boehringer Mannheim) in substantial accordance with the instructions provided by the manufacturer, followed by flow cytometric analysis on a FACScan Flow Cytometer (commercially available from Becton Dickinson).

The test system of assay [1] is p53 levels in cell lines with endogenous wildtype and mutated p53 status. Kind of assay: Western blot of p53 levels. It is filed as cell-based. The conditions noted are these: in response to calpain inhibitor 1 (FIG. 5). Background: Immunoblotting shows a protein as a band on a membrane.
Another assay concerns CTL response. Put plainly: In vivo CTL response to recombinant adenoviral vector (51Cr release). Also on record: species or system C57BL/6 mice. Conditions: for CTL response to the adenoviral vector: 60 mg/Kg or 120 mg/Kg calpain inhibitor 1, 9×10^9 particles/animal iv, spleens day 10. On the procedure:
FIG. 11 is a graphical results of the cytotoxicity assay of CTL against ACN53 transduced EL-4 targets in C57/B16 mice injected with 60 mg/Kg (A) or 120 mg/Kg (♦) calpain inhibitor 1 in combination with ACN53 as more fully described in Example 7 herein. Percent lysis is plotted on the vertical axis and time on the horizontal axis. The ACN53 alone is represented by the circles (●) and the naive control level is represented by the squares (▪).
The applicants hypothesized that the combined effect on MHC Class 1 presentation and apoptosis of non-transduced will reduce the immune response to the viral vectors. This was confirmed in a in vivo mouse model in substantial accordance with the teaching of example […] herein. The results are shown in the FIG. 8 of the attached drawings.
C57BU6 mice (2 mice per dose) were injected intravenously with 9×10^9 particles/animal (iv/200 μl) of a recombinant adenoviral vector encoding the βgal reporter gene under control of the CMV promoter. Naive mice were employed as controls. The spleens were harvested at day 10 for immunological analysis. Livers were harvested for analysis of β-gal transgene expression. Cells were be dispersed to a single cell suspension and washed 3 times. The cells were be resuspended complete RPMI-10 (RPMI+10% FCS, 2ME (5 μM), glutamine, Na pyruvate, Pen/Strep). Responder CTL cells were seeded in 24-well plates at 8×10^6 cells per well in 1.5 ml RPMI-5%. The responder CTL cells were restimulated by adding syngeneic (C57BL/6) spleen cells that were transduced for 6 hours with 2×10^10 BGCG particles/ml and then mitomycin treated to inhibit proliferation and/or activation of stimulator cell populations. The responder CTL were co-cultured with the stimulator cells at 37° C. in a humidified incubator for seven days. […] The Effector CTL cells were harvested, washed 2 times and counted to enumerate the CTL effector cells. […] The Effector CTL cells were co-cultivated with the target cells for 6 hours and the specific ^51Cr release were determined by counting harvested supernates (100 μl) in the γ counter.

Each structure is given as a SMILES string. Square brackets hold non-standard residues; d marks the D form. Peptide text beside a SMILES is read from it. Nle = CCCC[C@H](N)C(=O)O

Regarding `CCCC[C@@H](C=O)NC(=O)[C@H](CC(C)C)NC(=O)[C@H](CC(C)C)NC(C)=O` [CI-1, N-acetyl-leu-leu-norleucinal] (Ac-Leu-Leu-[Nle]-aldehyde), the “Percentage of Cells Undergoing Apoptosis” value in the assay on HeLa cells (10 μM CI-1, 68 hours post treatment) is reported as 8.3%. For the same compound, the “Percent Annexin V Positive Staining” value in the assay on HeLa cells (CI-1 10 μM) turned out to be 28%; in the assay on HeLa cells (CI-1 20 μM), 48%; in the assay on HeLa cells (CI-1 30 μM), 55%; with HeLa cells (CI-1 40 μM), 67%; in the assay with HeLa cells (CI-1 50 μM), 80%. Moreover, in the assay with HeLa cells (higher concentrations of CI-1, HeLa have E6 mediated degradation of p53), the induction of apoptosis entry is listed as “induced to apoptosis”. Also, the “increase in p53 levels” value in assay [1] is 2–5 ×. Moreover, the results for the “CTL response to the adenoviral vector” value with CTL response and with CTL response (listed as calpain inhibitor 1) were “significant inhibition” and “substantially reduced”, respectively. Moreover, the “relative number of CTL lytic-units (effector to target ratio giving 25% killing)” value in the assay on CTL response (treatment with calpain inhibitor CI-1, BGCG injected mice) is “greater than a five-fold decrease”.
